Assay: Storage stability of the solid state form
Format: physicochemical
Procedure: Crystalline Form C2 of Zavegepant hydrochloride may have one or more advantageous properties, as discussed herein above. For example, Form C2 is stable for a period of at least for 6 months at temperature of about 25° C. and a relative humidity (“RH”) of 60% RH, and at a temperature of about 40° C. and 75% RH.

For `Cc1cc(C[C@@H](NC(=O)N2CCC(c3cc4ccccc4[nH]c3=O)CC2)C(=O)N2CCN(C3CCN(C)CC3)CC2)cc2cn[nH]c12` [Form C2, (R)N-(3-(7-methyl-1H-indazol-5-yl)-1-(4-(1-methylpiperidin-4-yl)piperazin-1-yl)-1-oxopropan-2-yl)-4-(2-oxo-1,2-dihydroquinolin-3-yl)piperidine-1-carboxamide], which “period for which the form is stable” value (temperature of about 25° C., 60% RH) is on record?
Its value is ≥ 6 months.

And the “period for which the form is stable” value (temperature of about 40° C., 75% RH)?
Its value is ≥ 6 months.
